For 37 molecules, IC50 and EC50 results are on record in patent US8349839B2, “Inhibitors of HIV replication” (Boehringer Ingelheim International GmbH, priority 2009, dated 2013).

Test [1] deals with HIV reverse transcriptase (Human immunodeficiency virus type 1 group M subtype B, UniProt P04585). The test can be described thus: HIV Reverse Transcriptase Assay (IC50). The settings on record: assay of Example 67; 1 mM of ATP added to the reaction mixture. It counts as biochemical. As to the method:
(§1) Diluted solutions of stock solutions of compounds of Formula I in DMSO are prepared in assay buffer in Eppendorf tubes 16 h prior to their use in the biological assay, using a minimal supplementary volume of 75 μL of assay buffer in addition to the volume required in the assay. The samples are vortexed for 10 min at RT and incubated for 16 h at 4° C. The equilibrated solutions are centrifuged at 16 000 g for 5 min in a centrifuge equipped with an internal chiller, which is pre-equilibrated at 4° C., and the supernatant is collected. The portion of supernatant required for the serial dilutions in the biological assay is transferred to the compound dilution plate and a 75 μL portion of the remaining supernatant is transferred to a 1.4 mL tube (Micronic). A 25 μL volume of DMSO is promptly added and the sample is submitted for concentration determination by HPLC, along with the stock solution of the compound in DMSO as a standard for concentration determination analysis.
HIV Reverse Transcriptase Assay (IC50)
The assay used to measure inhibition of HIV reverse transcriptase is as described in WO 2006/034583, pages 52-53, incorporated herein by reference, except that 1 mM of ATP was added to the reaction mixture.

In test [2] the test system is HIV-1 replication in C8166 LTRluc cells. Briefly: C8166 HIV-1 Luciferase Assay (EC50). It counts as cell-based. The settings on record: Human immunodeficiency virus 1, 72 h; assay of Example 68; C8166 LTRluc cells infected with HIV-1 at moi 0.005, 3 days. As to the method: as §1
C8166 HIV-1 Luciferase Assay (EC50)
The assay used to measure inhibition of HIV replication is as described in WO 2004/050643, pages 73-75, incorporated herein by reference, with the following modifications:
Serial dilutions of HIV-1 inhibitors are prepared in complete media from DMSO stock solutions. Eleven serial dilutions of desired concentration are prepared in a 1 mL deep well titer plate (96 wells). The 12th well contains complete media with no inhibitor and serves as the positive control. All samples contain the same concentration of DMSO (<0.1% DMSO). Inhibitor is added, to triplicate wells, of a 96 well tissue culture treated clear view black microtiter plate (Corning Costar catalogue #3904). The total volume per well is 200 μL of media containing the cells and inhibitor. The last row is reserved for uninfected C8166 LTRluc cells to serve as the background blank control and the first row is media alone.
Count C8166 LTRluc cells and place in a minimal volume of complete RPMI 1640 in a tissue culture flask (ex. 30×10^6 cells in 10 mL media/25 cm^2 flask). Infect cells with HIV-1 at a moi of 0.005. Incubate cells for 1.5 h at 37° C. on a rotating rack in a 5% CO2 incubator. Resuspend cells in complete RPMI to give a final concentration of 25,000-cells/well. Add cells to wells of 96 well microtiter plate containing inhibitors. Add 25,000 uninfected C8166-LTRluc cells/well in 200 μL complete RPMI to last row for background control. Incubate cells at 37° C. in 5% CO2 incubator for 3 days.
50 μL Steady Glo (luciferase substrate T1/2=5 hours Promega catalogue # E2520) is added to each well of the 96 well plate. The relative light units (RLU) of luciferase are determined using a luminescence plate reader. The calculated % inhibition values are used to determine EC50, slope factor (n) and maximum inhibition (Imax).

For the molecule `O=c1nc(-c2ccccc2)c2oc3ccccc3c2n1CCN1CCCC1` [Compound 1001], in test [1], the IC50 (commonly the concentration at which inhibition is half-maximal) was 2350 nM.

With `CN1CCN(CC(=O)Nc2ccc(-c3nc(=O)n(C)c4c3oc3ccccc34)cc2)CC1` [Compound 1002], the IC50 in test [1] is 11000 nM. Further, in test [2], the EC50 – broadly, the midpoint of the concentration-response curve – stood at 15000 nM.

As to `COCCn1c(=O)nc(-c2ccc(NC(=O)CN(C)C)cc2)c2oc3ccccc3c21` [Compound 1004], the IC50 in test [1] came out at 1150 nM. The molecule further yielded an EC50 in test [2] of 3600 nM.

For the molecule `COCCn1c(=O)nc(-c2ccc(NC(=O)CN3CCOCC3)cc2)c2oc3ccccc3c21` [Compound 1005], the IC50 in test [1] is 215 nM.

In the case of `CCNCC(=O)Nc1ccc(-c2nc(=O)n(CCOC)c3c2oc2ccccc23)cc1` [Compound 1009], the IC50 in test [1] amounted to 73 nM. The same molecule yielded an EC50 in test [2] of 675 nM.

Consider `COCCn1c(=O)nc(-c2ccc(NC(=O)NCCN3CCCC3)cc2)c2oc3ccccc3c21` [Compound 1016], for which the half-maximal inhibitory concentration (IC50) in test [1] was 107 nM. The molecule also displayed an EC50 in test [2] of 6800 nM.

As for `COCCn1c(=O)nc(-c2ccc(OCCN(C)C)cc2)c2oc3ccccc3c21` [Compound 1036], the IC50 in test [1] came out at 633 nM. Moreover, the EC50 in test [2] stood at 14000 nM.

Take `CCNCC(=O)Nc1ccc(-c2nc(=O)n(C)c3c2oc2ccccc23)cc1` [Compound 1051]: in test [1], the IC50 worked out at 520 nM. Besides, the EC50 in test [2] is 980 nM.

Turning to `COCCn1c(=O)nc(-c2ccc(NC(=O)CN3CCCC3)c(OC)c2)c2oc3ccccc3c21` [Compound 1056], the IC50 in test [1] stood at 2500 nM.

In the case of `COCCn1c(=O)nc(-c2ccc(N(C)CCN(C)C)nc2)c2oc3ccccc3c21` [Compound 1070], the IC50 in test [1] turned out to be 310 nM. The molecule further gave an EC50 in test [2] of 1200 nM.

As for `COCCn1c(=O)nc(-c2ccc(N3CCN(C(C)C)CC3)nc2)c2oc3ccccc3c21` [Compound 1073], the IC50 in test [1] is 107 nM. The molecule also registered an EC50 in test [2] of 720 nM.

In the case of `O=c1nc(-c2ccccc2)c2oc3ccc(Cl)cc3c2n1CCN1CCCC1` [Compound 2001], the IC50 in test [1] is 593 nM. Moreover, the response in test [2] was half-maximal at 3700 nM (EC50).

Regarding `O=c1nc(-c2ccccc2)c2oc3ccc(Cl)cc3c2n1CCN1CCC(F)(F)C1` [Compound 2009], in test [1], the IC50 turned out to be 323 nM. Moreover, the EC50 in test [2] came out at 2900 nM.

On to `CCNCC(=O)Nc1ccc(-c2nc(=O)n(CCOC)c3c2oc2ccc(-c4cncs4)cc23)cc1` [Compound 2021], for which the IC50 in test [1] was determined as 20 nM. In test [2], the EC50 came to 200 nM.

`CN1CCc2cc(-c3ccc4oc5c(-c6ccc(F)cc6)nc(=O)n(CCN6CCCC6C(N)=O)c5c4c3)ccc2C1` (centres unmarked) [Compound 2025]: in test [1], the concentration for half-maximal inhibition (IC50) was found to be 35 nM. Further, in test [2], the response was half-maximal at 52 nM (EC50).

For `CC(=O)N(C)C1CCN(CCn2c(=O)nc(-c3ccccc3)c3oc4ccc(Br)cc4c32)C1` (centres unmarked) [Compound 2038], in test [1], the IC50 was found to be 250 nM. In test [2], this molecule came in with an EC50 of 2900 nM.

`CCNCC(=O)Nc1ccc(-c2nc(=O)n(CCOC)c3c2oc2ccc(-c4ccc5c(c4)N(C)CCC5)cc23)cc1` [Compound 2039]: the IC50 in test [1] was 24 nM. The same molecule registered an EC50 in test [2] of 440 nM.

As for `CCNCC(=O)Nc1ccc(-c2nc(=O)n(CCOC)c3c2oc2ccc(-c4cccc5c4CCN(C)C5)cc23)cc1` [Compound 2115], the IC50 in test [1] worked out at 1150 nM.

With `COCCn1c(=O)nc(-c2ccc(N)cc2)c2oc3ccc(Br)cc3c21` [Compound 2133], in test [1], the IC50 was found to be 760 nM. Also, the EC50 in test [2] was determined as 4650 nM.

With `COCCn1c(=O)nc(-c2ccc(NS(C)(=O)=O)cc2)c2oc3ccc(-c4ccc(CN(C)C)cc4)cc3c21` [Compound 2194], the IC50 in test [1] was 395 nM. The same molecule displayed an EC50 in test [2] of 1500 nM.

Take `CN(C)Cc1ccc(-c2ccc3oc4c(-c5ccccc5)nc(=O)n(-c5ccccc5)c4c3c2)cc1` [Compound 2213]: in test [1], the IC50 is 86 nM. In addition, the EC50 in test [2] came to 235 nM.

On to `CN1CCN(c2ccc(-c3nc(=O)n(CCN4CCCC4)c4c3oc3ccc(Cl)cc34)cn2)CC1` [Compound 2232], for which the IC50 in test [1] was 22 nM. For the same molecule, a half-maximal effect in test [2] (EC50) was put at 240 nM.

As to `CNC1CCN(c2ccc(-c3nc(=O)n(CCOC)c4c3oc3ccc(Cl)cc34)cn2)C1` (centres unmarked) [Compound 2254], the IC50 in test [1] amounted to 40 nM. The molecule further came in with an EC50 in test [2] of 210 nM.

Turning to `CN1CCN(c2ccc(-c3nc(=O)n(C)c4c3oc3ccc(Br)cc34)cn2)CC1` [Compound 2257], the IC50 in test [1] was determined as 31 nM. In test [2], this molecule displayed an EC50 of 190 nM.

In the case of `COCCn1c(=O)nc(-c2ccc(N3CCN(C)CC3)nc2)c2oc3ccc(Cl)cc3c21` [Compound 2260], in test [1], the IC50 turned out to be 75 nM. The same molecule displayed an EC50 in test [2] of 890 nM.

As for `CCNCc1nc2cc(-c3nc(=O)n(CCCOC)c4c3oc3ccc(Cl)cc34)ccc2n1C` [Compound 2273], the IC50 in test [1] came out at 8 nM. Also, the EC50 in test [2] turned out to be 58 nM.

Consider `CC(C)N1CCN(c2ccc(-c3nc(=O)n(CC(=O)N4CC[C@H](F)C4)c4c3oc3ccc(Cl)cc34)cn2)CC1` [Compound 2277], for which the IC50 in test [1] was found to be 7 nM. In addition, the EC50 in test [2] is 92 nM.

With `CCCCCn1c(=O)nc(-c2ccc3c(c2)nc(C)n3C)c2oc3ccc(-c4cnn(C)c4)cc3c21` [Compound 2287], the IC50 in test [1] came out at 5 nM. Also, it took 18 nM to reach a half-maximal effect in test [2] (EC50).

Take `CN(C)Cc1ccc(-c2ccc3oc4c(-c5ccccc5)nc(=O)n(CC(=O)NC5CC5)c4c3c2)cc1` [Compound 2310]: in test [1], the IC50 stood at 1000 nM.

On to `CN(C)Cc1ccc(-c2ccc3oc4c(c3c2)N(CC2CCCO2)S(=O)(=O)N=C4c2ccccc2)cc1` (centres unmarked) [Compound 3003], for which, in test [1], the IC50 is greater than 225 nM. Also, it took 950 nM to reach a half-maximal effect in test [2] (EC50).

For the molecule `COCCCN1c2c(oc3ccc(-c4ccc(CN(C)C)cc4)cc23)C(c2ccccc2)=NS1(=O)=O` [Compound 3004], the IC50 in test [1] was greater than 205 nM. Moreover, the EC50 in test [2] turned out to be 520 nM.

Turning to `O=C(O)Cn1c2ccc(Cl)cc2c2c1c(-c1ccccc1)nc(=O)n2CCN1CCCC1` [Compound 4001], the IC50 in test [1] turned out to be 280 nM. Further, the response in test [2] was half-maximal at 5800 nM (EC50).

On to `COCCCN1CCN(c2ccc(-c3nc(=O)n(CCCOC)c4c3oc3ncccc34)cn2)CC1` [Compound 5001], for which the IC50 in test [1] was 60 nM. The EC50 in test [2] was 590 nM.

Turning to `COCCCn1c(=O)nc(-c2ccc(N3CCC(NCC(F)F)CC3)nc2)c2oc3ncc(-c4cnn(C)c4)cc3c21` [Compound 5004], the IC50 in test [1] amounted to 14 nM.

For the molecule `COCCCn1c(=O)nc(-c2ccc(N3CCN(C(C)C)CC3)nc2)c2oc3cnccc3c21` [Compound 5019], in test [1], the half-inhibitory concentration (IC50) is 25 nM. Besides, the EC50 in test [2] is 280 nM.

For the molecule `CCCCCn1c(=O)nc(-c2ccc(N3CCN(C)CC3)nc2)c2oc3ncc(C#N)cc3c21` [Compound 5024], the concentration for half-maximal inhibition (IC50) in test [1] was 6 nM. The same molecule yielded an EC50 in test [2] of 32 nM.

`COCCCn1c(=O)nc(-c2ccc(N3CCN(C)CC3)nc2)c2oc3ncc(-c4cncs4)cc3c21` [Compound 5028]: the IC50 in test [1] was 4.1 nM. For the same molecule, in test [2], the EC50 stood at 21 nM.
